Source: patent US20100137449A1, “SUBSTITUTED 1,3-CYCLOPENTADIONE MULTI-TARGET PROTEIN KINASE MODULATORS OF CANCER, ANGIOGENESIS AND THE INFLAMMATORY PATHWAYS ASSOCIATED THEREWITH” (METAPROTEOMICS, LLC, priority 2007, published 2010)

Experiments:
Assay in all cases: KinaseProfiler Assay
[1] = molecular target: CK1γ1(h) (Homo sapiens, UniProt Q9HCP0)
[2] = molecular target: cKit(h) (Homo sapiens, UniProt P10721)
[3] = molecular target: T1, Flt3(h) (Homo sapiens, UniProt P36888)
T1 sequence (P36888 27-993): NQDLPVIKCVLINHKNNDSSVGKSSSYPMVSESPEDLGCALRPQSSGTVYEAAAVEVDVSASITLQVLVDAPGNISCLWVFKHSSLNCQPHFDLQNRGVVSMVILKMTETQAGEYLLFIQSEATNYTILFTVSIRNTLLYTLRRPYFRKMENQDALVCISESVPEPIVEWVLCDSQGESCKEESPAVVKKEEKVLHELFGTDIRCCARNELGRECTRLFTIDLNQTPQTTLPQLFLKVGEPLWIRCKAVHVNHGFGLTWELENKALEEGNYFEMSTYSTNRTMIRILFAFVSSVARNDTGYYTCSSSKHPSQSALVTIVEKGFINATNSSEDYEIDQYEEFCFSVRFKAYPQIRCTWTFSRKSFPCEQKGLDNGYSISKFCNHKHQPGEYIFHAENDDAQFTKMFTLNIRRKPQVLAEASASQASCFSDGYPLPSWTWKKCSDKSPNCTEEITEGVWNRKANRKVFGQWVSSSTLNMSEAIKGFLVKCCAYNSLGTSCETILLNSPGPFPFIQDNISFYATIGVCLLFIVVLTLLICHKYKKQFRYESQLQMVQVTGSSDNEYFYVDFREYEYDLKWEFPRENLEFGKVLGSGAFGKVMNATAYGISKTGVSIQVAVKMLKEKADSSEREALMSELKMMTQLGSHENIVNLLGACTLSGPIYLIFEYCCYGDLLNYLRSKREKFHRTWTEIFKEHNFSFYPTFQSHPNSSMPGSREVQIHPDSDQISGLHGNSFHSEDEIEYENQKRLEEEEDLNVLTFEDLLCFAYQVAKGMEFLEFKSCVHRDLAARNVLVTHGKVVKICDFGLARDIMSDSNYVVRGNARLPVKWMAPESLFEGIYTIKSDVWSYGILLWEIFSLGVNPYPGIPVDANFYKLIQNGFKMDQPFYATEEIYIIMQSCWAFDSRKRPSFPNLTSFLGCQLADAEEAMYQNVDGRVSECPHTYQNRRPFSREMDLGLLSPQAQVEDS

[4] = molecular target: MAPKAP-K2(h) (Homo sapiens, UniProt P49137)
[5] = molecular target: T2, PKCε(h) (Homo sapiens, UniProt Q02156)
T2 sequence (Q02156 1-737): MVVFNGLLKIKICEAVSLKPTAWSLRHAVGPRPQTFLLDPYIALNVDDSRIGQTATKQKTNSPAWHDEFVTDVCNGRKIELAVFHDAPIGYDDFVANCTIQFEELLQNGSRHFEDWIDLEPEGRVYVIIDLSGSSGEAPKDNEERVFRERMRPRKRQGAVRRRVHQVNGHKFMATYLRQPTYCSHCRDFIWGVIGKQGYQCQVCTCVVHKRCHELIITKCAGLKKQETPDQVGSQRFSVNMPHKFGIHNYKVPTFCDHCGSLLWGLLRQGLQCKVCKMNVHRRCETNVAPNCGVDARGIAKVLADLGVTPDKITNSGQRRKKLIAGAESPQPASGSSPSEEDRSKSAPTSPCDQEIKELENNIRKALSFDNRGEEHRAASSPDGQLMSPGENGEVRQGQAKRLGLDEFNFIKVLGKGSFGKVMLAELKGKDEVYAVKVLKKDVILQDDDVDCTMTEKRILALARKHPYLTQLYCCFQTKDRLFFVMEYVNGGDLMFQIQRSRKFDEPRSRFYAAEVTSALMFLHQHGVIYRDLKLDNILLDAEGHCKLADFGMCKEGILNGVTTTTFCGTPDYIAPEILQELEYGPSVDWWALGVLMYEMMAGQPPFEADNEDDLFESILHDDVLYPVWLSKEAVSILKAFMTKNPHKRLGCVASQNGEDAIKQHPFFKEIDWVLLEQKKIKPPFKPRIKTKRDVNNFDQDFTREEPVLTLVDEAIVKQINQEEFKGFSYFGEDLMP

[6] = molecular target: Rsk1(r) (Rattus norvegicus, UniProt Q63531)
[7] = molecular target: T3, SGK2(h) (Homo sapiens, UniProt Q9HBY8)
T3 sequence (Q9HBY8 1-367): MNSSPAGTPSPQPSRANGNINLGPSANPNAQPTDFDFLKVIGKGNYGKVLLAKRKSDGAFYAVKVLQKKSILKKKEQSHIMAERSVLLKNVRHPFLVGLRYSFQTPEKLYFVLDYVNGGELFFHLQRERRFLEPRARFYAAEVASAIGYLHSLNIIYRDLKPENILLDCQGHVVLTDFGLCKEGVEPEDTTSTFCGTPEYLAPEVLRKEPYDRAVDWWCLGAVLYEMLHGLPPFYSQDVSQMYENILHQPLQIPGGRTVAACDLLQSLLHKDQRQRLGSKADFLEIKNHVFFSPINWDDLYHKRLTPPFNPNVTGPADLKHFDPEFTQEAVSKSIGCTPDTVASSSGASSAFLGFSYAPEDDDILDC

Chain of cKit(h) (P10721 26-976): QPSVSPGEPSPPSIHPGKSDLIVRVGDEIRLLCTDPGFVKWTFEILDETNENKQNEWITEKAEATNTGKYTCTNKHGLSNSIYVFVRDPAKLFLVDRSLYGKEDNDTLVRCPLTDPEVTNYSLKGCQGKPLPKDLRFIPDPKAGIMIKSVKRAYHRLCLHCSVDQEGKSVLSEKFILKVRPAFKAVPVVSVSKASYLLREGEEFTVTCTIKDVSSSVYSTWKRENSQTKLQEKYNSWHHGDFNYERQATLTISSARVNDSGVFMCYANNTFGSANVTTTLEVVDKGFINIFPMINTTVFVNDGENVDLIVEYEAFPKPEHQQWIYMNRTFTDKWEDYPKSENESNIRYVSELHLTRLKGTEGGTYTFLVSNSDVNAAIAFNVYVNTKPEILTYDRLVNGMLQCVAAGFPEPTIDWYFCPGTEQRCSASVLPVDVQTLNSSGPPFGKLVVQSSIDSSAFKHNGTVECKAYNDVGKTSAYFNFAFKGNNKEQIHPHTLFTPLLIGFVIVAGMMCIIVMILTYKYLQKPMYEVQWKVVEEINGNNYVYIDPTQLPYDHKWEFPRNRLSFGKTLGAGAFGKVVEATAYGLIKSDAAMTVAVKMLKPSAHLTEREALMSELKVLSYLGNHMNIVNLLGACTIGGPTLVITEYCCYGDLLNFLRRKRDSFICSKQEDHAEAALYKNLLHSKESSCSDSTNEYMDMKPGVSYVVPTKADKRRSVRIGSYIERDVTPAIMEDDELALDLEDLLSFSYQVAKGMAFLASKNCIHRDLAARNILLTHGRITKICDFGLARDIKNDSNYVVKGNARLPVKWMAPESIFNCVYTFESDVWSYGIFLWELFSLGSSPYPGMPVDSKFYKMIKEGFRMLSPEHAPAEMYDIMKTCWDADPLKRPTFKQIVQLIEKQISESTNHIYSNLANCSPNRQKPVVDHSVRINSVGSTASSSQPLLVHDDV
Chain of MAPKAP-K2(h) (P49137 whole entry): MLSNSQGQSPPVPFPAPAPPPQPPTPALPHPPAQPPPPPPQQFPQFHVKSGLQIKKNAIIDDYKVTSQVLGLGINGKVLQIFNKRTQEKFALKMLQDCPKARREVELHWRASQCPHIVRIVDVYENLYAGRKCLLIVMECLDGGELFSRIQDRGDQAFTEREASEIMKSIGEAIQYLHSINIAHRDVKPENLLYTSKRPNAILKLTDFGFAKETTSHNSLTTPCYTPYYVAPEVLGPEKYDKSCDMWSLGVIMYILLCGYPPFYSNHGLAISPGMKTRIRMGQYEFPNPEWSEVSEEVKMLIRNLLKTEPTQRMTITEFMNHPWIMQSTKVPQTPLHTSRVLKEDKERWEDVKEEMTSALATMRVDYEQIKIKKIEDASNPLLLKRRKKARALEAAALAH
Chain of CK1γ1(h) (Q9HCP0 whole entry): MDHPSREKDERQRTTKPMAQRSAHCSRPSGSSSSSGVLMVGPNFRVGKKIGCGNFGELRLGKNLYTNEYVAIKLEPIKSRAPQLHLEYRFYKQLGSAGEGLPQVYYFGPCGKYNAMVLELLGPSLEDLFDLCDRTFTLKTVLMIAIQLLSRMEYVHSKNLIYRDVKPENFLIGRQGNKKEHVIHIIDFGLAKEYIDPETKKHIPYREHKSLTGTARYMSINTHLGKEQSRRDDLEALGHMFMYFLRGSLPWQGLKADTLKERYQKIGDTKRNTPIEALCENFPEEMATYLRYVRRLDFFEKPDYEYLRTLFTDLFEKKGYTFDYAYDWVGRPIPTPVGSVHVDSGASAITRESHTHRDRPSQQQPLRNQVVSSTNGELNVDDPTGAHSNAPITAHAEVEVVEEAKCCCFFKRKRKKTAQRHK
Chain of Rsk1(r) (Q63531 whole entry): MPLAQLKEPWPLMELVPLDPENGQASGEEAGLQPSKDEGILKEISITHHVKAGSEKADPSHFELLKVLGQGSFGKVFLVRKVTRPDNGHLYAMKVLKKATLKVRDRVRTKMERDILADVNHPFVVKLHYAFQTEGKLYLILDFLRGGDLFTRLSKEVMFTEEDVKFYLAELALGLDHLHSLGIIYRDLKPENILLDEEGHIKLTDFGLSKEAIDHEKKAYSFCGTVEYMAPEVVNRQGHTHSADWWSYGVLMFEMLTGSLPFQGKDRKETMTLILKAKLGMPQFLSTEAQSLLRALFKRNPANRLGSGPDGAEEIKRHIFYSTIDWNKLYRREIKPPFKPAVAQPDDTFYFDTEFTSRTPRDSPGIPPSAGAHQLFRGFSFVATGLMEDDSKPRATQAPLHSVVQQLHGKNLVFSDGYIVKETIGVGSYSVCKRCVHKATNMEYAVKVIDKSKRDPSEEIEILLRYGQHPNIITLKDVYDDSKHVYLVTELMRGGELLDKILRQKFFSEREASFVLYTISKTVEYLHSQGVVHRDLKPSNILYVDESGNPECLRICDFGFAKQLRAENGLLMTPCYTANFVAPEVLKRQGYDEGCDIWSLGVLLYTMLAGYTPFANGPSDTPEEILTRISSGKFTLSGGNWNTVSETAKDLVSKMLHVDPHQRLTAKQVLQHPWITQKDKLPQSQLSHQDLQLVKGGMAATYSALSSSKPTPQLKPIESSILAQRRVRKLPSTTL

Q: With `CC(C)CCC(=O)[C@]1(O)C(O)=C(C(=O)C(C)C)C(=O)[C@H]1CCC(C)C` [TH2, tetrahydroiso-cohumulone] as the compound, how does the kinase inhibition ([1]; 1 μg/ml) read?
A: The kinase inhibition was 100% of control.

Q: And the kinase inhibition ([1]; 5 μg/ml)?
A: Its kinase inhibition is 101% of control.

Q: What about the kinase inhibition ([1]; 25 μg/ml) of the same compound?
A: Its kinase inhibition is 88% of control.

Q: And the kinase inhibition ([1]; 50 μg/ml)?
A: Its kinase inhibition is 73% of control.

Q: What about the kinase inhibition ([1]; 100 μg/ml) of the same compound?
A: Its kinase inhibition is 48% of control.

Q: What about the kinase inhibition ([2]; 1 μg/ml) of the same compound?
A: Its kinase inhibition is 110% of control.

Q: And the kinase inhibition ([2]; 5 μg/ml)?
A: Its kinase inhibition is 87% of control.

Q: What about the kinase inhibition ([2]; 25 μg/ml) of the same compound?
A: Its kinase inhibition is 86% of control.

Q: And the kinase inhibition ([2]; 50 μg/ml)?
A: The kinase inhibition was 96% of control.

Q: What about the kinase inhibition ([2]; 100 μg/ml) of the same compound?
A: Its kinase inhibition is 95% of control.

Q: What about the kinase inhibition ([3]; 1 μg/ml) of the same compound?
A: Its kinase inhibition is 107% of control.

Q: And the kinase inhibition ([3]; 5 μg/ml)?
A: Its kinase inhibition is 99% of control.

Q: And the kinase inhibition ([3]; 25 μg/ml)?
A: The kinase inhibition was 109% of control.

Q: What about the kinase inhibition ([3]; 50 μg/ml) of the same compound?
A: Its kinase inhibition is 95% of control.

Q: What about the kinase inhibition ([3]; 100 μg/ml) of the same compound?
A: Its kinase inhibition is 84% of control.

Q: And the kinase inhibition ([4]; 1 μg/ml)?
A: Its kinase inhibition is 116% of control.

Q: What about the kinase inhibition ([4]; 5 μg/ml) of the same compound?
A: The kinase inhibition was 104% of control.

Q: What about the kinase inhibition ([4]; 25 μg/ml) of the same compound?
A: The kinase inhibition was 104% of control.

Q: What about the kinase inhibition ([4]; 50 μg/ml) of the same compound?
A: Its kinase inhibition is 74% of control.

Q: And the kinase inhibition ([4]; 100 μg/ml)?
A: Its kinase inhibition is 73% of control.

Q: And the kinase inhibition ([5]; 1 μg/ml)?
A: Its kinase inhibition is 105% of control.

Q: And the kinase inhibition ([5]; 5 μg/ml)?
A: Its kinase inhibition is 102% of control.

Q: What about the kinase inhibition ([5]; 25 μg/ml) of the same compound?
A: Its kinase inhibition is 98% of control.

Q: And the kinase inhibition ([5]; 50 μg/ml)?
A: The kinase inhibition was 102% of control.

Q: What about the kinase inhibition ([5]; 100 μg/ml) of the same compound?
A: Its kinase inhibition is 90% of control.

Q: And the kinase inhibition ([6]; 1 μg/ml)?
A: Its kinase inhibition is 101% of control.

Q: And the kinase inhibition ([6]; 5 μg/ml)?
A: The kinase inhibition was 102% of control.

Q: What about the kinase inhibition ([6]; 25 μg/ml) of the same compound?
A: Its kinase inhibition is 93% of control.

Q: What about the kinase inhibition ([6]; 50 μg/ml) of the same compound?
A: Its kinase inhibition is 63% of control.

Q: What about the kinase inhibition ([6]; 100 μg/ml) of the same compound?
A: The kinase inhibition was 36% of control.

Q: And the kinase inhibition ([7]; 1 μg/ml)?
A: Its kinase inhibition is 133% of control.

Q: What about the kinase inhibition ([7]; 5 μg/ml) of the same compound?
A: The kinase inhibition was 116% of control.

Q: And the kinase inhibition ([7]; 25 μg/ml)?
A: The kinase inhibition was 112% of control.

Q: What about the kinase inhibition ([7]; 50 μg/ml) of the same compound?
A: The kinase inhibition was 121% of control.

Q: And the kinase inhibition ([7]; 100 μg/ml)?
A: Its kinase inhibition is 69% of control.
